Measurements from patent publication US20050187608A1, “Radioprotective compound coating for medical devices” (priority 2004, published 2005).
Marks after values point to notes of the source that are not given here.

How the values were obtained:
[1] = system: neointimal hyperplasia and inflammation; assay: Rapamycin compared with dexamethasone delivered from a stent; assay type: in vivo; settings: for Inflammation Score: uncoated 0.97 ± 1.00; for Neointimal Area: uncoated 5.24 ± 1.65; for % Area Stenosis: uncoated 54 ± 19
Excerpt: Dexamethasone, a potent steroidal anti-inflammatory agent, was used as a reference standard.

[2] = In vivo release kinetics from rapamycin/mycophenolic acid coatings, porcine pharmacokinetics studies
Excerpt: The topcoat is two hundred micro grams.

[3] = system: human coronary artery smooth muscle cells; assay: Anti-proliferative activity of rapamycin with varying concentrations of mycophenolic acid; assay type: cell-based; settings: non-synchronized cultured human coronary artery smooth muscle cells, two percent fetal bovine serum, mycophenolic acid zero to one thousand nano molar, FIG. 52
Excerpt: The multiple curves represent various concentrations of mycophenolic acid ranging from zero to one thousand nano molar concentrations. […] This potentiation observed in cultured coronary artery smooth muscle cells preferably translates to an enhancement in anti-restenotic efficacy following vascular injury and a reduction in the required amount of either agent to achieve the desired anti-restenotic effect.

[4] = system: human coronary artery smooth muscle cell proliferation; assay: In vitro cell culture study of coronary artery smooth muscle cell proliferation; assay type: cell-based
Excerpt: FIG. 51 is a graph of the inhibition of coronary artery smooth muscle cells by trichostatin A in a cell culture study.

| SMILES | Inflammation Score [1] | Neointimal Area [1] | % Area Stenosis [1] [%] | further results |
| --- | --- | --- | --- | --- |
| C[C@@H]1C[C@H]2[C@@H]3CCC4=CC(=O)C=C[C@]4(C)[C@@]3(F)[C@@H](O)C[C@]2(C)[C@@]1(O)C(=O)CO [Dexamethasone, dexamethasone] | 0.39 ± 0.24 | 4.31 ± 3.02 mm^2 | 45 ± 31 | – |
| CO[C@H]1C[C@@H]2CC[C@@H](C)[C@@](O)(O2)C(=O)C(=O)N2CCCC[C@H]2C(=O)O[C@H]([C@H](C)C[C@@H]2CC[C@@H](O)[C@H](OC)C2)CC(=O)[C@H](C)/C=C(\C)[C@@H](O)[C@@H](OC)C(=O)[C@H](C)C[C@H](C)/C=C/C=C/C=C/1C [Rapamycin, rapamycin] | 0.13 ± 0.19 | 2.47 ± 0.94* mm^2 | 26 ± 10 | in vivo release rate ([2]; PVDF basecoat 600 μg, rapamycin and mycophenolic acid equally two thirds by weight, 200 μg PVDF topcoat, FIG. 56): slower release rate than that of mycophenolic acid |
| COc1c(C)c2c(c(O)c1C/C=C(\C)CCC(=O)O)C(=O)OC2 [mycophenolic acid] | – | – | – | effect on the anti-proliferative rapamycin dose response curve [3]: potentiates the anti-proliferative activity of rapamycin; in vivo release of mycophenolic acid from the basecoat ([2]; EVA/BMA basecoat 600 μg with 30% rapamycin and 30% mycophenolic acid, BMA topcoat 0/100/200 μg, FIG. 54): elutes more completely over a shorter duration than the rapamycin |
| CC(/C=C/C(=O)NO)=C\[C@@H](C)C(=O)c1ccc(N(C)C)cc1 [trichostatin A] | – | – | – | inhibition of human coronary artery smooth muscle cell proliferation ([4]; FIG. 51): completely inhibit; IC50 ([4]; human coronary artery smooth muscle cells, read-out: anti-proliferative IC50): ~6 nM |
